Assay results taken from patent US7235539B2, “6-Hydroxyequilenins as estrogenic agents” (Wyeth, priority 2002, dated 2007).

How the values were obtained:
[1] = biological target: T1, human ERα (Homo sapiens, UniProt P03372); assay: Radioligand binding competition with [3H]-17β-estradiol, ERα; conditions: human ERα ligand binding domain extract, read-out: ER-α IC50
T1 construct: amino acids M250–V595 of human ERα; His tag (N); made in house; host or cells: E. coli BL21(DE3), clarified lysate
T1 sequence (P03372 250-595): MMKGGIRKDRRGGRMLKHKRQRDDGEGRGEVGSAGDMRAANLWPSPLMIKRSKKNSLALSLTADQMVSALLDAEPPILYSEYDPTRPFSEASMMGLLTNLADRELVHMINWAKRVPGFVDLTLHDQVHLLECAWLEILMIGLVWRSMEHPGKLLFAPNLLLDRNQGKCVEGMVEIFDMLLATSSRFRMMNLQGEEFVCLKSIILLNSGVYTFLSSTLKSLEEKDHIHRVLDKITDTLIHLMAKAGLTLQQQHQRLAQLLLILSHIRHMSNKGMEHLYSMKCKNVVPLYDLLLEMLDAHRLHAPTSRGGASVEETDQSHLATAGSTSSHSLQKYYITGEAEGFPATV

[2] = biological target: T2, human ERβ (Homo sapiens, UniProt Q92731); assay: Radioligand binding competition with [3H]-17β-estradiol, ERβ; conditions: human ERβ ligand binding domain extract, read-out: ER-β IC50
T2 construct: M214–Q530 of human ERβ; Flag (C); made in house; host or cells: E. coli BL21(DE3), clarified lysate

[3] = test system: metallothionein-II mRNA in Saos-2 cells (via ERβ); assay: Regulation of metallothionein II mRNA in Saos-2 cells; assay type: cell-based
From the text: Estrogens acting through ERβ, but not ERα can upregulate metallothionein II mRNA levels in Saos-2 cells as described by Harris [Endocrinology 142: 645–652 (2001)]. Results from this test procedure can be combined with results from the test procedure described below (ERE reporter test procedure) to generate a selectivity profile for compounds of this invention (see also WO 00/37681).

T2 sequence (Q92731 214-530): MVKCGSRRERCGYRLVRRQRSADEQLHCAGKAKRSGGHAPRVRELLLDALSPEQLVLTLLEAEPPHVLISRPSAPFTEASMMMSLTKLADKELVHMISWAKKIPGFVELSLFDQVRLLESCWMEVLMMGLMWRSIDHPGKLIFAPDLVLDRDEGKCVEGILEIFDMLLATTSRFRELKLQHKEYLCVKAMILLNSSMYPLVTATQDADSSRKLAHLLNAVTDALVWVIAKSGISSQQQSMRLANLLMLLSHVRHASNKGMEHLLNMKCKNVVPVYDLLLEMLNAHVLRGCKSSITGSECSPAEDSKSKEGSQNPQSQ

Row | SMILES | IC50 [1] | IC50 [2] | Fold upregulation of metallothionein-II mRNA [3]
1 | CC12CCc3c(cc(O)c4cc(O)ccc34)C1CCC2=O (stereo not drawn) [Compound 1, 6-Hydroxyequilenin] | 2180 nM | 123 nM | 11
2 | CC12CCc3c(cc(O)c4cc(O)ccc34)C1CC[C@@H]2O (stereo partly drawn) [Compound 5, 6-Hydroxy-3,17β-dihydroequilenin] | 238 nM | 16 nM | 11
